Measurements from patent publication US10800782B2, “Inhibitors of cellular metabolic processes” (Agios Pharmaceuticals, Inc., priority 2016, dated 2020).

Target: T1, MAT2A (Homo sapiens, UniProt P31153)
T1 construct: His6; made in house; host or cells: SF9 insect cells
Test: MAT2A biochemical assay (colorimetric inorganic phosphate detection, PiColorLock)
Details: recombinant His6-tagged MAT2A 1 μg/ml; 60 minutes preincubation at 25° C.; L-Met 80 μM, ATP 100 μM; 60 minutes reaction; read at 623 nm; read-out: MAT2A Inhibition Score
Procedure, shortened: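 Colorimetric malachite green readout of phosphate released when MAT2A turns over L-Met and ATP, after 60 min at room temperature. Enzyme: SF9-expressed His6-tagged MAT2A at 1 μg/ml. Buffer: Tris pH 8.0, 50 mM KCl, 15 mM MgCl2, 300 uM EDTA, 0.005% BSA. Compounds tested as ten-point three-fold dilutions.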

T1 sequence (P31153 whole entry): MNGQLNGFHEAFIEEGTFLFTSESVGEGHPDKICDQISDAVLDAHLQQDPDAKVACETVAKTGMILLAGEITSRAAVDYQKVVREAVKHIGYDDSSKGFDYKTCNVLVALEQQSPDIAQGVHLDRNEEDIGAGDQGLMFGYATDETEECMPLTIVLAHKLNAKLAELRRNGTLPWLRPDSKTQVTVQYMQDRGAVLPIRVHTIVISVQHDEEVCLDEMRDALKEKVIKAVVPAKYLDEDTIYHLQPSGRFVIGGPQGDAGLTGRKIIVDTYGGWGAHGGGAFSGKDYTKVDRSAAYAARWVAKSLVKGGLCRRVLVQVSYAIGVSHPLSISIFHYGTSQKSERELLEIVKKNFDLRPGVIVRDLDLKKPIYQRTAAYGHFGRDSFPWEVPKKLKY

With `COc1ccc(-c2c(CNc3nc[nH]n3)[nH]c3c(-c4ccccc4)c(-c4ccccc4)nn3c2=O)cc1` [Compound 264, 5-(((1H-1,2,4-triazol-3-yl)amino)methyl)-6-(4-methoxyphenyl)-2,3-diphenylpyrazolo[1,5-a]pyrimidin-7(4H)-one] the IC50 was under 0.1 µM.

Compound `COc1ccc(-c2c(Nc3ncc(C#N)cn3)[nH]c3c(-c4ccccc4)c(-c4ccccc4)nn3c2=O)cc1` [Compound 115, 2-(6-(4-methoxyphenyl)-7-oxo-2,3-diphenyl-4,7-dihydropyrazolo[1,5-a]pyrimidin-5-ylamino)pyrimidine-5-carbonitrile] has an IC50 of under 0.1 µM.

Compound `Cc1c(-c2ccc(O)cc2)c(=O)n2nc(-c3ccccc3)c(-c3cccs3)c2n1C` [Compound 271, 6-(4-hydroxyphenyl)-4,5-dimethyl-2-phenyl-3-(thiophen-2-yl)pyrazolo[1,5-a]pyrimidin-7(4H)-one] has an IC50 of under 0.1 µM.

`COc1ccc(-c2c(Nc3cnc(C#N)cn3)[nH]c3c(C4=CCCCC4)c(-c4ccccc4)nn3c2=O)cc1` [Compound 159, 5-(3-cyclohexenyl-6-(4-methoxyphenyl)-7-oxo-2-phenyl-4,7-dihydropyrazolo[1,5-a]pyrimidin-5-ylamino)pyrazine-2-carbonitrile] showed an IC50 of under 0.1 µM.

`CN1CCOc2ccc(-c3c(Nc4ccccn4)[nH]c4c(-c5ccccc5)c(-c5ccccc5)nn4c3=O)cc21` [Compound 198, 6-(4-methyl-3,4-dihydro-2H-benzo[b][1,4]oxazin-6-yl)-2,3-diphenyl-5-(pyridin-2-ylamino)pyrazolo[1,5-a]pyrimidin-7(4H)-one] showed an IC50 of under 0.1 µM.

For `COc1ccc(-c2c(Nc3cnccn3)[nH]c3c(C4=CCCCC4)c(-c4ccccc4)nn3c2=O)cc1` [Compound 158, 3-cyclohexenyl-6-(4-methoxyphenyl)-2-phenyl-5-(pyrazin-2-ylamino) pyrazolo[1,5-a]pyrimidin-7(4H)-one], the IC50 was under 0.1 µM.

In the case of `COc1ccc(-c2c(CN)[nH]c3c(-c4ccccc4)c(-c4ccccc4)nn3c2=O)cc1` [Compound 222, 5-(aminomethyl)-6-(4-methoxyphenyl)-2,3-diphenylpyrazolo[1,5-a]pyrimidin-7(4H)-one], the IC50 is reported as under 0.1 µM.

In the case of `Cc1[nH]c2c(-c3ccccc3)c(-c3ccccc3)nn2c(=O)c1-c1ccc(O)c(OCCN(C)C)c1` [Compound 292, 6-(3-(2-(dimethylamino)ethoxy)-4-hydroxyphenyl)-5-methyl-2,3-diphenylpyrazolo[1,5-a]pyrimidin-7(4H)-one], the IC50 is reported as under 0.1 µM.

`COc1ccc(-c2c(CO)[nH]c3c(-c4ccccc4)c(-c4ccccc4)nn3c2=O)cc1` [Compound 221, 5-(hydroxymethyl)-6-(4-methoxyphenyl)-2,3-diphenylpyrazolo[1,5-a]pyrimidin-7(4H)-one] showed an IC50 of under 0.1 µM.

`O=c1c(-c2ccc3nccnc3c2)c(Nc2ccon2)[nH]c2c(C3=CCCCC3)c(-c3ccccc3)nn12` [Compound 177, 3-(cyclohex-1-en-1-yl)-5-(isoxazol-3-ylamino)-2-phenyl-6-(quinoxalin-6-yl)pyrazolo[1,5-a]pyrimidin-7(4H)-one] gave an IC50 of under 0.1 µM.

Compound `COc1ccc(-c2c(Nc3cncnc3)[nH]c3c(-c4ccccc4)c(-c4ccccc4)nn3c2=O)cc1` [Compound 120, 6-(4-methoxyphenyl)-2,3-diphenyl-5-(pyrimidin-5-ylamino)pyrazolo[1,5-a]pyrimidin-7(4H)-one] has an IC50 of under 0.1 µM.

For `O=c1c(-c2ccc3ncccc3c2)c(Cn2cccn2)[nH]c2c(-c3ccccc3)c(-c3ccccc3)nn12` [Compound 320, 5-((1H-pyrazol-1-yl)methyl)-2,3-diphenyl-6-(quinolin-6-yl)pyrazolo[1,5-a]pyrimidin-7(4H)-one], the IC50 was 0.1 to 1 µM.

`COc1ccc(-c2c(C)[nH]c3c(N4CCCCC4)c(-c4ccccc4)nn3c2=O)cn1` [Compound 358, 6-(6-methoxypyridin-3-yl)-5-methyl-2-phenyl-3-(piperidin-1-yl)pyrazolo[1,5-a]pyrimidin-7(4H)-one] showed an IC50 of under 0.1 µM.
